Test results published in patent publication US10220040B2, “Compounds, compositions and methods useful for cholesterol mobilization” (Cerenis Therapeutics Holding SA, priority 2010, dated 2019).

What was measured:
C57Bl6 mice = test: Dose response on bile physiology after single oral gavage in mice; type: in vivo; settings: oral gavage 0.003, 0.03 and 0.3 mg/kg, bile analyzed 6 hours later
Protocol: FIG. 16A-J: Increase of bile secretion following activation of P2Y13r pathway in mice. C57Bl/6J mice (n=10) were fasted for 2 h and then intravenously injected with Cangrelor® or Compound IIa (10 nmoles/kg). Four hours later the gallbladders were removed and analyzed for: Bile acids content (FIG. 16A); Bile cholesterol content (FIG. 16B). C57Bl/6J mice (n=10) were fasted for 2 h followed by single oral dose of P2Y13r agonist Compound IIa at 3, 30 or 300 μg/kg. Six hours later bile acids contents (FIG. 16C); bile cholesterol content (FIG. 16D), and bile acid content of liver (FIG. 16E) were evaluated using HPLC and enzymatic kits for gallbladers. Plasma samples were collected at time 0 and after 6 h of treatment, then analyzed for: total cholesterol (▴), unesterified cholesterol (●), esterified cholesterol (▪) and HDL cholesterol (▾) determined using either enzymatic kits or Lipoprint® for HDL cholesterol (FIG. 16F). C57Bl/6J mice (n=5) were intravenously injected with [^3H]-cholesterol-labelled mouse HDL (FIG. 16G), [^3H]-cholesteryl oleate-labelled mouse HDL (FIG. 16H) or [^3H]-cholesterol-labelled mouse LDL (FIG. 16I), and with Cangrelor® or Compound IIa (10 nmoles/kg). Radioactivity present in the liver was determined 2 hours later for the HDL or 5 hours later for the LDL. Cholesterol content of feces from treated animals (100 μg/kg) was determined by Charge aerosol detection (FIG. 16J). *p<0.05, **p<0.01.
The dose response after oral gavage was determined for illustrative compounds of the invention. The chosen doses were 0.003, 0.03 and 0.3 mg/kg. The selected compounds of the invention were administrated by oral gavage and 6 hours later the mice are sacrificed and the bile content was analyzed (FIGS. 6-11).
Bile acids were diluted in PBS (1:5000) and the concentration was measured according to the manufacturer protocol with slight modifications. Concentrations of bile acids in the standard curve were varied from […] and the enzymatic reaction was performed for 20 minutes. 4 μl of 1:5000 bile dilution was used for concentration determination.
Bile phospholipids were measured according to the manufacturer protocol. Briefly, the standards were varied from 0 to 20 μg/ml and 4 μl of bile was measured in the assay. The reaction was performed for 5 minutes at 37° C.
Bile phospholipids were measured according to the manufacturer protocol. Briefly, the standards were varied from 0 to 60 μg/ml and 10 μl of bile (dilution 1:10) was measured in the assay. The reaction was performed for 5 minutes at 37° C.

human P2Y13 receptor = human P2Y13 receptor (Homo sapiens (Human), UniProt Q9BPV8); test: Ca++ flux agonist assay on P2Y13 receptor transfected 1321N1 cells; type: cell-based; settings: comma is decimal sign
Protocol: Compounds were assayed for their agonist activity on P2Y13 GPCR transfected cells using a Ca++ flux assay (associated to fluorescent dye detection) with the Reference Compound as positive reference. Two cell lines, 1321N1-P2Y13 stably expressing human P2Y13 receptor, and 1321N1 parental cell line as control, were used in this assay. 1321N1 Parental and 1321N1 P2Y13 were seeded into T25 flasks at 3 million cells per flask, respectively. Cells were incubated at 37 degrees Celsius in 5% CO2 overnight. The day after, cells were transfected with Gqi5 protein using Fugene transfection reagent (Roche's Fugene Reagent).
After 24 hours of transfection, cells were collected from flasks and seeded in 384-well plates at 8000 cells per well. The assays were carried out 48 hours after Gqi5 transfection.
Methods: The Ca++ flux assay was conducted according to the manufacturer's protocol (Molecular Devices FLIPR Calcium 4 Assay kit (R8142). Briefly, cell culture media were aspirated from the wells and replaced with 25 μL of Hank's buffer or PBS buffer. 25 μL of Ca++ dye was added into each assay well. The plate was incubated for 1 hour at 37° C. in 5% CO2. After the incubation, the plate was transferred to FlexStation III (FlexStation III (Molecular Devices)). The compounds were automatically injected into each well.

HepG2 cells [1] = test: In vitro HDL internalization in human hepatocytes (HepG2) cells; type: cell-based; settings: compound 1 μM; 3H-labeled HDL 75 μg/ml, 10 min at 37° C.
Protocol: FIG. 3: Single-dose effect of the selected molecules on HDL internalization by HepG2 cells. Cells were incubated for 10 min at 37° C. with 75 μg/ml ^3H cholesterol Cholesteryl Oleate [Cholesteryl-1,2-^3H(N)] HDL, Reference Compound (100 nM) and illustrative compounds of the invention (1 μM). Data are expressed as the percentage of internalized radioactivity with respect to the control value (set as […]). *p<0.005, **p<0.0001.
The effect of illustrative compounds of the invention on HDL internalization was measured by an in vitro assay on HepG2 cells (FIG. 3). ^3H cholesterol Cholesteryl Oleate [Cholesteryl-1,2-^3H(N)] labeled HDL] (available from PerkinElmer http://www.perkinelmer.com/Catalog/Product/ID/NET746L001MC) was loaded on HepG2 cells in presence of illustrative compounds of the invention (final concentration 1 μM). […] It was determined that Compounds XIa, IIc, IIa and Ih (R-isomer) have a strong impact on HDL uptake by HepG2 cells; Compounds IIb, VIIa and VIIIa have a modest impact on HDL uptake by HepG2 cells.
^3H cholesterol Cholesteryl Oleate [Cholesteryl-1,2-^3H(N)] (Perkin Elmer) solution (250 μL) was dried and resuspended in acetone (250 μL). The solution was mixed with Lipoprotein delipidated serum (20 mL at 40 mg/mL) and DTNB (0.4 μM final concentration). HDL (7 mg) was added and incubated overnight at 4° C. on gentle rotation. The HDL was purified on KBr gradient as previously described.
Hepatocytes were plated at 300,000 cells/well in 6×-well plates. Two days later, the cells were washed once with DMEM and incubated for 1 hour in DMEM at 37° C. 75 μg of radio-labeled HDL (6500 dpm/μg) were added to the medium and incubated for 10 minutes at 37° C. The cells were washed once with DMEM (2 mL) and incubated for 1.5 hours in DMEM at 4° C., whereupon dissociation occurred. Then the cells were washed once more with cold DMEM (2 mL) and the incorporated cholesterol ether was retrieved from HepG2 cells by the addition of hexane:isopropanol (3:2) solution (1 mL).

HepG2 cells [2] = settings: previously reported (Jacquet et al. 2005); positive control; cited from earlier work
[3] = Table 3, measured from data of Figure 1
[4] = Table 4, measured from data of Figure 2

Sequence of human P2Y13 receptor (Q9BPV8 whole entry): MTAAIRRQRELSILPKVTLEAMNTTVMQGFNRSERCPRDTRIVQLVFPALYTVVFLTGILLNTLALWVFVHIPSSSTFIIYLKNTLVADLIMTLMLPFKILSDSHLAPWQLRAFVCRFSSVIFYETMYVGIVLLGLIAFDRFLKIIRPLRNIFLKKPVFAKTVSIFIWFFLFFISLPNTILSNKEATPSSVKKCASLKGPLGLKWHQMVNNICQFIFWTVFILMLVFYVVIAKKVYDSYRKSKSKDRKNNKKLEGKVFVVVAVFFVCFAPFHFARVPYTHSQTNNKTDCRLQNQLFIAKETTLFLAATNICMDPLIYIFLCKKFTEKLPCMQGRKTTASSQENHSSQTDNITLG

| Molecule | dose at which an effect on bile acids, bile cholesterol and bile phospholipids was shown (C57Bl6 mice) [µg/kg] | EC50 (human P2Y13 receptor; [3]) [µM] | impact on HDL uptake by HepG2 cells (HepG2 cells [1]) | EC50 (human P2Y13 receptor; [4]) [µM] | HDL uptake in HepG2 cells in vitro (HepG2 cells [2]) |
| --- | --- | --- | --- | --- | --- |
| CCOc1cc(C2CC(=O)Nc3c2cnn3-c2ccccc2CC)ccc1O (stereo not shown) [Compound VIIIa, 4-(3-Ethoxy-4-hydroxy-phenyl)-1-(2-ethyl-phenyl)-1,4,5,7-tetrahydro-pyrazolo[3,4-b]pyridin-6-one] | 3 |  |  |  |  |
| CCOC(=O)C(C)(C)CCCC[C@H](c1ccccc1Cl)N1CCc2sccc2C1 [Compound Ih (R-isomer)] |  | 42.4 | strong impact |  |  |
| COCCNCC(=O)Nc1ccc2c(c1)OCCO2 [Compound XIa, N-(2,3-Dihydrobenzo[1,4]dioxin-6-yl)-2-(2-methoxy-ethylamino)-acetamide] | 3 |  | strong impact | 0.0489 |  |
| CC(C)(CCCCCC(c1ccccc1Cl)N1CCC(O)/C(=C/C(=O)O)C1)C(=O)O (stereo not shown) [Compound Va] |  | 55.2 |  |  |  |
| O=C(C1OCCc2ccccc21)N1CCC2(CC1)Nc1ccccc1-n1cccc12 (stereo not shown) [Compound VIIa, isochroman-1-yl(5′H-spiro[piperidine-4,4′-pyrrolo[1,2-a]quinoxaline]-1-yl)methanone] | 300 |  | modest impact | 40.3 |  |
| CSCCNc1nc(SCCC(F)(F)F)nc2c1ncn2[C@@H]1O[C@H](COP(=O)(O)OP(=O)(O)C(Cl)(Cl)P(=O)(O)O)[C@@H](O)[C@H]1O [Reference Compound, Dichloro-(((((2R,3S,4R,5R)-3,4-dihydroxy-5-(6-(2-(methylthio)ethylamino)-2-(3,3,3-trifluoropropylthio)-9H-purin-9-yl)tetrahydrofuran-2-yl)methoxy)(hydroxy)phosphoryloxy)(hydroxy)phosphoryl)-methylphosphonic acid, reference compound] |  |  |  | 0.00632 | increase the HDL uptake |
| 6-[1-(2-methylaminopyrimidin-5-ylmethyl)-piperidin-4-yl]-2-piperidin-1-yl-pyrimidin-4-ol [Compound IIc] | 3 |  | strong impact | 6.63 |  |
| COc1ccc(CN2CCC(c3cc(O)nc(N4CCCCC4)n3)CC2)cc1O [Compound IIb, 6-[1-(3-Hydroxy-4-methoxybenzyl)-piperidin-4-yl]-2-piperidin-1-yl-pyrimidin-4-ol] | 300 |  | modest impact | 0.299 |  |
| CCOC(=O)C(C)(C)CCCC[C@@H](c1ccccc1Cl)N1CCc2sccc2C1 [Compound Ih (S-isomer)] |  | 33.7 |  |  |  |
